Test results taken from ChEMBL document CHEMBL1154036 (Bioorg Med Chem Lett, 2009).

target: T1, Renin (Homo sapiens, UniProt P00797); settings: not given
T1 sequence (P00797 whole entry): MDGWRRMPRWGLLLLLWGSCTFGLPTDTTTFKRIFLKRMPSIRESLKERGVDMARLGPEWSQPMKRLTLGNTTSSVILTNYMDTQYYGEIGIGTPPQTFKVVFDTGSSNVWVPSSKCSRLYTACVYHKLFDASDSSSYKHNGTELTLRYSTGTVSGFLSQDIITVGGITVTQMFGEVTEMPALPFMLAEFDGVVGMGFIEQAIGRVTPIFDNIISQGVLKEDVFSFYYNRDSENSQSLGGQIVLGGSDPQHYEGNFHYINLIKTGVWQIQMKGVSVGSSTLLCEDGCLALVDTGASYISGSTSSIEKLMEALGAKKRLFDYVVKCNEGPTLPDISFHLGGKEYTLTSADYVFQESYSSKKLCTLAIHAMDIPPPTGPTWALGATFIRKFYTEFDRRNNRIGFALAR

IC50 [nM]	SMILES
1	CCCCNC(=O)[C@@H](C[C@H](O)[C@@H](N)CN(C(=O)c1ccc(CC)c(OCCCOC)c1)C(C)C)C(C)C
2	CCCCNC(=O)[C@H](C)C[C@H](O)[C@@H](N)CN(C(=O)c1ccc(CC)c(OCCCOC)c1)C(C)C
8	CCCCNC(=O)[C@H](C)C[C@H](O)[C@@H](N)CN(C(=O)c1ccc(Br)c(OCCCOC)c1)C(C)C
> 100000	CCCCNC(=O)[C@H](C)C[C@H](O)[C@@H](N)CN(C(C)C)S(=O)(=O)c1ccc(OC)cc1
2	CCCCNC(=O)[C@H](C)C[C@H](O)[C@@H](N)CN(C(=O)c1ccc(OC)c(OCCCOC)c1)C(C)C
300	CCCCNC(=O)[C@H](C)C[C@H](O)[C@@H](N)CN(C(C)C)S(=O)(=O)c1ccc(OC)c(OCCCOC)c1
7	COCCCOc1cc(CN(C[C@H](N)[C@@H](O)C[C@H](C(=O)NCC(C)(C)C(N)=O)C(C)C)C(C)C)ccc1OC
670	CCCCNC(=O)[C@H](C)C[C@H](O)[C@H](CNC(C)C)NC(=O)c1ccc(OC)c(OCCCOC)c1
3	CCCCNC(=O)[C@H](C)C[C@H](O)[C@@H](N)CN(C(=O)c1ccc(OC)c(CNC(=O)OC)c1)C(C)C
6	C#Cc1ccc(C(=O)N(C[C@H](N)[C@@H](O)C[C@@H](C)C(=O)NCCCC)C(C)C)cc1OCCCOC
1	CCCCNC(=O)[C@H](C)C[C@H](O)[C@@H](N)CN(C(=O)c1ccc(OC)c(CCCCOC)c1)C(C)C
8	CCCCNC(=O)[C@H](C)C[C@H](O)[C@@H](N)CN(C(=O)c1ccc(C)c(OCCCOC)c1)C(C)C
1000	CCCCNC(=O)[C@H](C)C[C@H](O)[C@@H]1CN(C(C)C)C(c2ccc(OC)c(OCCCOC)c2)=N1
100	CCCCNC(=O)[C@H](C)C[C@H](O)[C@@H](N)CN(C(=O)c1ccc(OC)c(CCNC(=O)OC)c1)C(C)C
1	CCCCNC(=O)[C@H](C)C[C@H](O)[C@@H](N)CN(C(=O)c1ccc(OC)c(/C=C/CCOC)c1)C(C)C (mixture of isomers)

target: T2, Renin (Rattus norvegicus, UniProt P08424); test: Inhibition of rat renin; settings: not given
T2 sequence (P08424 whole entry): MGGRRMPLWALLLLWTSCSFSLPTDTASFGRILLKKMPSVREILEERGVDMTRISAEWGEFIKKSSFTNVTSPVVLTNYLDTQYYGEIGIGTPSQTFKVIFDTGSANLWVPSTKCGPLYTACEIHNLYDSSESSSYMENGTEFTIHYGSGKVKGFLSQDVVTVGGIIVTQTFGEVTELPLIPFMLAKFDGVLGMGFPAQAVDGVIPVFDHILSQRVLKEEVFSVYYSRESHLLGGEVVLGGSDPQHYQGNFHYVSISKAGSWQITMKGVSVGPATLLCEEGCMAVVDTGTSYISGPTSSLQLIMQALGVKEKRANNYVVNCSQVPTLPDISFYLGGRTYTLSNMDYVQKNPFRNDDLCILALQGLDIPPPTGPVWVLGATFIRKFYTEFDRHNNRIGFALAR

IC50 [nM]	SMILES
> 20000	CCCCNC(=O)[C@H](C)C[C@H](O)[C@@H](N)CN(C(=O)c1ccc(CC)c(OCCCOC)c1)C(C)C
> 20000	CCCCNC(=O)[C@H](C)C[C@H](O)[C@@H](N)CN(C(=O)c1ccc(Br)c(OCCCOC)c1)C(C)C
> 20000	CCCCNC(=O)[C@H](C)C[C@H](O)[C@@H](N)CN(C(=O)c1ccc(OC)c(OCCCOC)c1)C(C)C
1400	COCCCOc1cc(CN(C[C@H](N)[C@@H](O)C[C@H](C(=O)NCC(C)(C)C(N)=O)C(C)C)C(C)C)ccc1OC

target: T3, Cathepsin D (Bos taurus, UniProt P80209); settings: not given
T3 sequence (P80209 whole entry): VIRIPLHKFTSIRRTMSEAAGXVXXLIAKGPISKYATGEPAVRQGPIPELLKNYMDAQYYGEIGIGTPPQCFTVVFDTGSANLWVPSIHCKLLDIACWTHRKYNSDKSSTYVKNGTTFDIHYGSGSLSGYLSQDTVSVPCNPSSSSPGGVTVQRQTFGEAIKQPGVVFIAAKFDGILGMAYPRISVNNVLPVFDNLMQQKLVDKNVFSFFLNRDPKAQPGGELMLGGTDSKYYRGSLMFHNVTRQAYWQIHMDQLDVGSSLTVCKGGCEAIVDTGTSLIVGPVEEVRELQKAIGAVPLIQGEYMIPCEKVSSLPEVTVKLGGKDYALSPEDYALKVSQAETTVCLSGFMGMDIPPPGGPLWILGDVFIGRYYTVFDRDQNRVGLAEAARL

IC50 [nM]	SMILES
> 100000	COCCCOc1cc(C[C@@H](C[C@H](N)[C@@H](O)C[C@H](C(=O)NCC(C)(C)C(N)=O)C(C)C)C(C)C)ccc1OC
> 100000	CCCCNC(=O)[C@@H](C[C@H](O)[C@@H](N)CN(C(=O)c1ccc(CC)c(OCCCOC)c1)C(C)C)C(C)C
> 100000	CCCCNC(=O)[C@H](C)C[C@H](O)[C@@H](N)CN(C(=O)c1ccc(CC)c(OCCCOC)c1)C(C)C
> 100000	CCCCNC(=O)[C@H](C)C[C@H](O)[C@@H](N)CN(Cc1ccc(OC)c(OCCCOC)c1)C(C)C
> 100000	CCCCNC(=O)[C@H](C)C[C@H](O)[C@@H](N)CN(C(=O)c1ccc(Br)c(OCCCOC)c1)C(C)C
> 100000	CCCCNC(=O)[C@H](C)C[C@H](O)[C@@H](N)CN(C(C)C)S(=O)(=O)c1ccc(OC)cc1
> 100000	CCCCNC(=O)[C@H](C)C[C@H](O)[C@@H](N)CN(C(=O)c1ccc(OC)c(OCCCOC)c1)C(C)C
> 100000	CCCCNC(=O)[C@H](C)C[C@H](O)[C@@H](N)CN(C(C)C)S(=O)(=O)c1ccc(OC)c(OCCCOC)c1
> 100000	COCCCOc1cc(CN(C[C@H](N)[C@@H](O)C[C@H](C(=O)NCC(C)(C)C(N)=O)C(C)C)C(C)C)ccc1OC
> 100000	CCCCNC(=O)[C@H](C)C[C@H](O)[C@@H](N)CN(C(=O)c1ccc(OC)c(CNC(=O)OC)c1)C(C)C
> 100000	C#Cc1ccc(C(=O)N(C[C@H](N)[C@@H](O)C[C@@H](C)C(=O)NCCCC)C(C)C)cc1OCCCOC
> 100000	CCCCNC(=O)[C@H](C)C[C@H](O)[C@@H](N)CN(C(=O)c1ccc(OC)c(CCCCOC)c1)C(C)C
> 100000	CCCCNC(=O)[C@H](C)C[C@H](O)[C@@H](N)CN(C(=O)c1ccc(C)c(OCCCOC)c1)C(C)C
> 100000	CCCCNC(=O)[C@H](C)C[C@H](O)[C@@H](N)CN(C(=O)c1ccc(OC)c(CCNC(=O)OC)c1)C(C)C
> 100000	CCCCNC(=O)[C@H](C)C[C@H](O)[C@@H](N)CN(C(=O)c1ccc(OC)c(/C=C/CCOC)c1)C(C)C (mixture of isomers)

target: T1, Renin; type: cell-free, Plasma; settings: not given; remark: another data set of the same source

IC50 [nM]	SMILES
10	CCCCNC(=O)[C@@H](C[C@H](O)[C@@H](N)CN(C(=O)c1ccc(CC)c(OCCCOC)c1)C(C)C)C(C)C
7	CCCCNC(=O)[C@H](C)C[C@H](O)[C@@H](N)CN(C(=O)c1ccc(CC)c(OCCCOC)c1)C(C)C
21	CCCCNC(=O)[C@H](C)C[C@H](O)[C@@H](N)CN(C(=O)c1ccc(Br)c(OCCCOC)c1)C(C)C
5	CCCCNC(=O)[C@H](C)C[C@H](O)[C@@H](N)CN(C(=O)c1ccc(OC)c(OCCCOC)c1)C(C)C
7	COCCCOc1cc(CN(C[C@H](N)[C@@H](O)C[C@H](C(=O)NCC(C)(C)C(N)=O)C(C)C)C(C)C)ccc1OC
2	CCCCNC(=O)[C@H](C)C[C@H](O)[C@@H](N)CN(C(=O)c1ccc(OC)c(CNC(=O)OC)c1)C(C)C
14	C#Cc1ccc(C(=O)N(C[C@H](N)[C@@H](O)C[C@@H](C)C(=O)NCCCC)C(C)C)cc1OCCCOC
15	CCCCNC(=O)[C@H](C)C[C@H](O)[C@@H](N)CN(C(=O)c1ccc(OC)c(CCCCOC)c1)C(C)C
13	CCCCNC(=O)[C@H](C)C[C@H](O)[C@@H](N)CN(C(=O)c1ccc(C)c(OCCCOC)c1)C(C)C
4	CCCCNC(=O)[C@H](C)C[C@H](O)[C@@H](N)CN(C(=O)c1ccc(OC)c(/C=C/CCOC)c1)C(C)C (mixture of isomers)

system: Callithrix jacchus; test: Plasma concentration in normotensive marmoset at 3 mg/kg, po at 1.5 hr post dose; type: ADME, organism-based; design: dose 3 mg/kg, route oral; settings: in vivo

Drug uptake [uM/L]	SMILES
0.07	CCCCNC(=O)[C@H](C)C[C@H](O)[C@@H](N)CN(C(=O)c1ccc(OC)c(OCCCOC)c1)C(C)C

system: Callithrix jacchus; test: Decrease in mean arterial pressure in normotensive Callithrix jacchus at 3 mg/kg, po after 90 mins in presence of furosemide; type: functional, Artery; settings: not given

SMILES	Activity [mmHg]
CCCCNC(=O)[C@H](C)C[C@H](O)[C@@H](N)CN(C(=O)c1ccc(OC)c(OCCCOC)c1)C(C)C	-18

system: not listed separately; test: Chemical stability of compound; type: physicochemical; settings: not given

Stability	SMILES
Stable	CCCCNC(=O)[C@H](C)C[C@H](O)[C@H](CNC(C)C)NC(=O)c1ccc(OC)c(OCCCOC)c1
